Results reported in patent publication US12138256B2, “Treatment of cardiopulmonary disorders” (Bayer Aktiengesellschaft, priority 2021, dated 2024).
Values joined by “and” are separate entries in the source; they are usually repeats but may differ in a detail not shown here. Identical values can stand only once. Like-named read-outs stand apart in the source and are kept apart here.

Columns and labels:
[1] = system: thromboxane analog U46619 induced PAH in minipigs with ODQ or L-NAME pretreatment; assay: PAH minipig model under oxidative stress / low NO (pretreatment by ODQ or L-NAME); assay type: in vivo, Göttingen minipig; parameters: PAP / BP: unit not given beside the values; conditions: for BP / PAP: 30 μg/kg nominal dose inhaled
Procedure: To simulate conditions of oxidative stress or low NO concentrations as assumed to be present in different cardiovascular disorders, comparative example 11 was evaluated with and without pretreatment by ODQ (inhibitor of sGC) or L-NAME (NOS inhibitor). […] In contrast, the effects of Ventavis® under conditions of oxidative stress or low NO concentrations were not enhanced. In addition, also under these pathophysiological conditions the duration of action of comparative example 11 was much longer compared to Ventavis®.

systemic blood pressure = assay: First clinical studies in healthy volunteers: systemic blood pressure; assay type: in vivo, human; conditions: up to 4000 μg, dry powder inhaled
[2] = Phase I single dose inhaled, inhaled + charcoal block, oral and intravenous: pharmacokinetics and lung deposition (C-4.3); assay type: in vivo, human; conditions: for bioavailability / half-life: male, human, plasma; for half-life: read-out: elimination half-life (converted)
Procedure: Healthy white male subjects, aged 18 to 45 years with a body mass index (BMI) above/equal 18.5 and below/equal 29.9 kg/m^2 were treated in a clinical phase I study with a single inhaled dose of 1000 μg (nominal dose), a single inhaled dose of 1000 μg (nominal dose)+charcoal block, a single oral dose of 1000 μg and a single infusion over 2 h of 100 μg of example 4. As the bioavailability of an intravenous application is generally 100% per definition and therefore higher than in case of an oral or […] administration, the intravenous dose was carefully selected to be lower than the oral and inhaled dose to avoid higher plasma concentration resulting from a high IV dose and potential side effect, e.g. reduction in blood pressure or syncope. Therefore, 100 μg was selected for the IV dose in this investigation. Seven days washout period between treatments was applied. The subjects swallowed a solution for oral administration (20 ml comprising 1000 μg, see under D-2, table 50). The subjects received a solution as a single infusion over 2 hours (see under D-2 table 50). The subjects inhaled the drug powder from capsules (see under D-1, e.g. tables 17 and 20) inserted into a handheld inhalation device by one deep inhalative breath. After inhalation of the dry powder formulation of this drug, some parts of the nominal dose remain in the capsule and the device, the dose which reaches the body at the mouthpiece is called the emitted dose. The emitted dose can be calculated/determined as followed: nominal dose−(remains in the capsule+remains in the device). After inhalation of the dry powder, one part of the emitted dose enters the gastrointestinal tract (GIT) and is called the oral part of the emitted dose, the other part of the emitted dose which reaches the lung through the respiratory airways is called the lung dose and represents the lung deposited dose. As the lung is the target organ of the effect, the lung deposited dose must be quantified. Lung deposition can be indirectly estimated, by determining the part of the nominal dose which reaches the GIT and the remains in the capsule and the device. To investigate and determine lung deposition, the following investigations were done (see also FIG. 77): • 1—Inhaled application of a single dose of 1000 μg of the dry powder. • 2—Inhaled application of a single dose of 1000 μg of the dry powder in combination with oral administration of charcoal block. The charcoal block capped the oral absorption of GIT part of the dose, as example 4 completely adsorbed to charcoal block. This implies that the concentrations of example 4 measured reach the systemic circulation via the lung. • 3—Administration of a single oral dose of 1000 μg example 4 to determine the oral absorption. • 4—Administration of a 2 h infusion of example 4 to investigate the elimination.
Plasma concentrations of example 4 were measured after all different types of administrations, in addition the remains in the device and the capsule were measured after inhaled application. […] The longer terminal half-life after inhalation can be explained by the formation of a pulmonary depot of example 4 in the lungs from which the substance is continuously transferred to the circulatory system.
The emitted dose is calculated to be 720 μg, as the remains in the capsule were 160 μg and the remains in the device were 120 μg, see FIG. 79.

O=C(O)c1ccc(CCN(CCc2ccccc2OCc2ccc(-c3ccc(C(F)(F)F)cc3)cc2Cl)[C@H]2CCCc3nc(C(=O)O)ccc32)cc1 [comparative example 11, (5S)-5-{[2-(4-carboxyphenyl)ethyl][2-(2-{[3-chloro-4′-(trifluoromethyl)[biphenyl]-4-yl]methoxy}phenyl)ethyl]amino}-5,6,7,8-tetrahydroquinoline-2-carboxylic acid]
BP ([1]; L-NAME pretreatment, Time 170): 103.0 and 135.0 and 123.0
PAP ([1]; L-NAME pretreatment, Time 170): 39.5 and 36.2 and 34.6
BP ([1]; L-NAME pretreatment, Time 180): 104.0 and 139.0 and 127.0
PAP ([1]; L-NAME pretreatment, Time 180): 38.9 and 29.1 and 30.8
BP ([1]; L-NAME pretreatment, Time 190): 104.0 and 137.0 and 127.0
PAP ([1]; L-NAME pretreatment, Time 190): 38.0 and 25.9 and 28.4
BP ([1]; L-NAME pretreatment, Time 200): 104.0 and 135.0 and 129.0
PAP ([1]; L-NAME pretreatment, Time 200): 36.8 and 24.6 and 28.1
BP ([1]; L-NAME pretreatment, Time 210): 105.0 and 133.0 and 127.0
PAP ([1]; L-NAME pretreatment, Time 210): 36.5 and 23.9 and 26.6
BP ([1]; L-NAME pretreatment, Time 220): 107.0 and 131.0 and 127.0
PAP ([1]; L-NAME pretreatment, Time 220): 36.6 and 23.8 and 25.5
BP ([1]; L-NAME pretreatment, Time 230): 108.0 and 127.0 and 129.0
PAP ([1]; L-NAME pretreatment, Time 230): 35.5 and 23.6 and 25.6
BP ([1]; L-NAME pretreatment, Time 240): 106.0 and 128.0
PAP ([1]; L-NAME pretreatment, Time 240): 35.0 and 24.0 and 25.0
BP ([1]; L-NAME pretreatment, Time 250): 106.0 and 126.0 and 130.0
PAP ([1]; L-NAME pretreatment, Time 250): 34.5 and 23.5 and 24.8
BP ([1]; L-NAME pretreatment, Time 260): 107.0 and 126.0 and 130.0
PAP ([1]; L-NAME pretreatment, Time 260): 34.6 and 24.2 and 24.7
BP ([1]; L-NAME pretreatment, Time 270): 104.0 and 126.0 and 129.0
PAP ([1]; L-NAME pretreatment, Time 270): 34.1 and 24.0 and 24.3
BP ([1]; L-NAME pretreatment, Time 280): 103.0 and 125.0 and 129.0
PAP ([1]; L-NAME pretreatment, Time 280): 33.4 and 23.7 and 24.4
BP ([1]; L-NAME pretreatment, Time 290): 104.0 and 126.0 and 128.0
PAP ([1]; L-NAME pretreatment, Time 290): 34.4 and 23.4 and 24.2
BP ([1]; L-NAME pretreatment, Time 300): 105.0 and 125.0 and 127.0
PAP ([1]; L-NAME pretreatment, Time 300): 34.2 and 24.1 and 24.0
BP ([1]; L-NAME pretreatment, Time 310): 103.0 and 125.0 and 128.0
PAP ([1]; L-NAME pretreatment, Time 310): 33.3 and 23.6 and 24.3
BP ([1]; L-NAME pretreatment, Time 320): 104.0 and 125.0 and 126.0
PAP ([1]; L-NAME pretreatment, Time 320): 33.8 and 23.1 and 24.0
BP ([1]; L-NAME pretreatment, Time 330): 105.0 and 126.0 and 125.0
PAP ([1]; L-NAME pretreatment, Time 330): 34.1
BP ([1]; L-NAME pretreatment, Time 340): 104.0 and 126.0 and 125.0
BP ([1]; without pretreatment, Time 170): 90.0 and 108.0
PAP ([1]; without pretreatment, Time 170): 39.7 and 38.0 and 42.6
BP ([1]; without pretreatment, Time 180): 90.0 and 108.0
PAP ([1]; without pretreatment, Time 180): 38.5 and 37.1 and 41.5
BP ([1]; without pretreatment, Time 190): 90.0 and 107.0 and 108.0
PAP ([1]; without pretreatment, Time 190): 37.0 and 35.9 and 40.3
BP ([1]; without pretreatment, Time 200): 89.0 and 109.0
PAP ([1]; without pretreatment, Time 200): 36.5 and 35.2 and 39.0
BP ([1]; without pretreatment, Time 210): 89.0 and 108.0 and 109.0
PAP ([1]; without pretreatment, Time 210): 35.6 and 34.2 and 38.5
BP ([1]; without pretreatment, Time 220): 88.0 and 110.0 and 108.0
PAP ([1]; without pretreatment, Time 220): 34.7 and 33.9 and 36.8
BP ([1]; without pretreatment, Time 230): 87.0 and 108.0
PAP ([1]; without pretreatment, Time 230): 34.8 and 33.4 and 37.1
BP ([1]; without pretreatment, Time 240): 87.0 and 109.0 and 108.0
PAP ([1]; without pretreatment, Time 240): 34.5 and 33.6 and 37.0
BP ([1]; without pretreatment, Time 250): 86.0 and 110.0 and 109.0
PAP ([1]; without pretreatment, Time 250): 34.3 and 33.5 and 36.7
BP ([1]; without pretreatment, Time 260): 87.0 and 109.0 and 110.0
PAP ([1]; without pretreatment, Time 260): 34.1 and 33.3 and 36.5
BP ([1]; without pretreatment, Time 270): 86.0 and 108.0 and 110.0
PAP ([1]; without pretreatment, Time 270): 34.0 and 33.6 and 36.2
BP ([1]; without pretreatment, Time 280): 88.0 and 109.0
PAP ([1]; without pretreatment, Time 280): 34.5 and 33.5 and 35.6
BP ([1]; without pretreatment, Time 290): 88.0 and 108.0 and 110.0
PAP ([1]; without pretreatment, Time 290): 34.7 and 33.6 and 35.5
BP ([1]; without pretreatment, Time 300): 86.0 and 107.0 and 111.0
PAP ([1]; without pretreatment, Time 300): 34.1 and 33.2 and 35.4
BP ([1]; without pretreatment, Time 310): 85.0 and 107.0 and 109.0
PAP ([1]; without pretreatment, Time 310): 34.0 and 33.6 and 35.1
BP ([1]; without pretreatment, Time 320): 85.0 and 108.0 and 109.0
PAP ([1]; without pretreatment, Time 320): 34.5 and 34.0 and 35.8
BP ([1]; without pretreatment, Time 330): 85.0 and 108.0 and 109.0
PAP ([1]; without pretreatment, Time 330): 34.8 and 34.0 and 35.9
BP ([1]; without pretreatment, Time 340): 85.0
effect on PAP after pretreatment of ODQ or L-NAME ([1]; inhaled, comparative example 11 30 μg/kg ND, Ventavis 10 μg/kg nominal dose): enhanced decrease of PAP without effects on systemic BP

O=C(O)c1ccc(CCN(CCc2ccccc2OCc2ccc(-c3ccc(C(F)(F)F)cc3)cc2Cl)[C@H]2CCCc3nc(C(=O)O)ccc32)cc1 [example 4, (5S)-{[2-(4-Carboxyphenyl)ethyl][2-(2-{[3-chloro-4′-(trifluoromethyl)biphenyl-4-yl]methoxy}phenyl)-ethyl]amino}-5,6,7,8-tetrahydroquinoline-2-carboxylic acid]
effect on systemic blood pressure in healthy volunteers (systemic blood pressure): no clinically meaningful effect on systemic blood pressure
emitted dose ([2]; after inhalation of 1000 μg in humans): 720 µg
oral part of the dose ([2]; inhaled 1000 μg): approximately 13 % of the nominal dose
bioavailability ([2]; inhaled or intranasal, 1000 μg, dry powder inhaled with charcoal (lung dose), read-out: absolute bioavailability): 16.3%
bioavailability ([2]; inhaled or intranasal, 1000 μg, dry powder inhaled without charcoal, read-out: absolute bioavailability): 18.8%
half-life ([2]; inhaled or intranasal, 1000 ug, inhaled 1000 μg with charcoal): 16.1 h
half-life ([2]; inhaled or intranasal, 1000 ug, inhaled 1000 μg without charcoal): 15.1 h
bioavailability ([2]; inhaled or intranasal, 1000 ug, read-out: relative bioavailability, inhaled with charcoal block to inhaled without): 86.9%
half-life ([2]; iv, 100 μg, intravenous, 100 μg infusion over 2 h): 0.26 h
half-life ([2]; po, 1000 ug, oral, 1000 μg solution): 4.43 h
